Earlier results, collected in patent publication US8067364B2, “Deer antler extract for promoting angiogenesis” (Velvet Antler Research New Zealand Limited (VARNZ), priority 2003, dated 2011).
No end group written: not given here.

Columns and labels:
[1] = system: endothelial cells, wounds; details: literature
wounds = details: delivered by gene therapy, local sustained delivery; literature

For “Thymosin α1: peptide of the Thymosin family, potential wound healing agent (Ac-SDAAVDTSSEITTKDLKEKKEVVEEAEN; ends and bridges not checked; UniProt P06454 2-29, looked up)”, the “endothelial cell migration, angiogenesis, and wound healing” value [1] is listed as “stimulates endothelial cell migration, angiogenesis, and wound healing”.

In the case of VEGF, the “angiogenesis and wound healing” value (wounds) is given as “cause angiogenesis and enhanced wound healing”.
